pIC50: −log10 of the molar value. Several values for one entry are separate records, joined by “and”; a condition that tells them apart may be missing. Equal entries are not always repeated.
Experiments:
[1] = test system: MPTP induced cell death in the SN; experiment: Parkinson's disease in vivo: MPTP model; design: species or system mouse; conditions: MPTP mice; for Behaviour Pole Test, % (SSV = 0%) / Behaviour Pole Test, value ± SD: 30 mg/kg; for SN cell counts % of SSV / SN cell counts (cells +/− SD): test drug 30 mg/kg daily by oral gavage, several experiments
Source text: Parkinson's Disease In Vivo Technique: MPTP
MPTP (1-methyl 4-phenyl 1,2,3,6-tetrahydropyridine) is a chemical that is related to the opioid analgesic drugs. MPTP causes Parkinsonian side-effects. This occurs when MPTP is metabolized into MPP+, which kills neurons in a part of the brain called the substantia nigra. MPP+ interferes with mitochondria metabolism which leads to cell death and causes the build up of free radicals, toxic molecules that contribute further to cell destruction. MPTP has abilities to effect neuronal death in dopaminergic cells. Such effects lead to gross depletion of dopaminergic neurons which has severe implications on cortical control of complex movements.
General Experimental Design
Determining that MPTP Causes Continued Cell Death
Control (non tg) and transgenic mice receive five intraperitoneal injections of MPTP-HCl (23 gauge needle, 20 mg\kg of free base; Sigma, St. Louis, Mo., USA) dissolved in sterile 0.9% saline at 2-h interval in 1 day. Control animals receive five intraperitoneal injections of 0.9% saline. […] 20 C57BL6, 10 control and 10 hA53T tg are used to establish the precise dose of toxin at 2 weeks. Animals are allowed to recover for 1 week, 2 weeks, 1 month, 12, months and 18 months. The animals are killed and the brains removed for histological (stereological) and biochemical analysis.
Determining Whether Test Drug Reduces MPTP Induced Cell Death
Animals are treated as described above. They are treated with test drug 2 days after MPTP injection until death. Test drug is given by oral gavage at a daily dosage of 30 mg/kg. The time of killing the animals is dependant on the analysis of Experiment 1, normally one month or less.
Drugs are administered by oral gavage, at a daily dosage of 30 mg/kg.
Mice are assessed at prior to killing the mice for histological analysis.
Motor coordination and strength are assessed using the rotarod. The rotarod consists of a plastic rotating rod of 3.6 cm axial diameter partitioned by metal disks into five sections to allow the testing of multiple mice simultaneously. Mice are trained on two sessions where the rotation speed is ramped from 0-30 rpm over 5 min and one training session where rotation is a constant 16 rpm for 5 min. Within two days of training, animals are formally assessed on the rotarod rotating at 16 rpm for a maximum of 3 min: the time to fall on this single test is the recorded data point.
The pole is a 700 mm long, 5 mm diameter, wooden rod. The rod is supported at its base and held vertical. The total walking distance for the mice is 550 mm. The time taken for the mouse to descend the pole is measured with a maximum time of 120 s. If a mouse falls, the time is scored as 120 s.

[2] = test system: Neuronal cortical cells; experiment: Cytotox (% viable); Primary Neuronal Cells Neurotoxicity Assay; assay type: cell-based, mouse; conditions: cell type not given, repeat values given
Protocol: Assay 2 (a). Primary Neuronal Cells Neurotoxicity Assays
Cortical cultures were prepared as previously described (White et al., 1998). Embryonic day 14 BL6Jx129sv mouse cortices were removed, dissected free of meninges and dissociated in 0.025% (wt/vol) trypsin. Dissociated cells were plated in 48 well culture plates at a density of 2×10^6 cells/mL in MEM with 25% (vol/vol) FCS and 5% (vol/vol) HS and incubated at 37° C., 2 hrs. Media was then replaced with Neurobasal media (Invitrogen Life Technologies) and B27 supplements (Invitrogen Life Technologies). Cultures were maintained at 37° C. in 5% CO2. Prior to experimentation, the culture medium was replaced with Neurobasal media and B27 minus antioxidants (Invitrogen Life Technologies).
Neuronal cortical cells were cultured for five days as per Assay 2 in NB media and B27 supplement.
On day six the test compounds were added to the neuronal cell cultures in NB media and B27 supplement minus antioxidants.
Test compounds were dissolved in 100% DMSO to a concentration of 2.5 mM (10 mM if excess compound was weighed out per vial—then diluted to 2.5 mM). 2.5 mM stock solution was serially diluted 1 in 10 to give working solutions of 250 uM, 25 uM, 2.5 uM. Test compounds were not added directly to cells, instead they were added to a 48 well ‘Drug Plate’ as comprised below: • Preparation of “Drug Plate”:
Well 1: 576 ul NB+B27 (no antioxidant)*+24 ul 2.5 uM test compound
Well 2: 576 ul NB+B27 (no antioxidant)+24 μl 25 uM test compound
Well 3: 576 ul NB+B27 (no antioxidant)+24 ul 250 uM test compound
Well 4: 576 ul NB+B27 (no antioxidant)+24 ul 2.5 uM test compound
Well 5: 576 ul NB+B27 (no antioxidant)+24 ul 25 uM test compound
Well 6: 576 ul NB+B27 (no antioxidant)+24 ul 250 uM test compound
Well 7: 576 ul NB+B27 (no antioxidant)+24 ul test compound diluent**
Well 8: 600 ul NB+B27 (no antioxidant)
The Drug Plate was incubated at 37° C. for 15 mins. 200 ul of each well was added in triplicate to the corresponding cell plate. The cell plate was incubated at 37° C., for 4 days, (2 compounds are tested on each plate of cells).
*NB media and B27 (no antioxidants),
**PBT diluent 10% DMSO in NB+1327 (no antioxidants)
On completion of the assay, 1/10 volume MTS was added per well of plate (ie 25 ul/250 ul). The plates were incubated at 37° C. for 2 hrs, and then absorbance was read at 560 nm.

[3] = test system: generation of hydrogen peroxide (H2O2) by iron; experiment: H2O2 Inhibition Assay; assay type: biochemical
Protocol: Assay 1. H2O2 Inhibition Assay.
(§1) This fluoresence assay evaluates the ability of a test compound to inhibit the generation of hydrogen peroxide (H2O2) by iron in the presence of a reducing substrate such as ascorbic acid. In the assay, iron in the form of FeCl3 or copper is allowed to react with ascorbic acid by incubating for 1 hr at 37° C. in the presence of the fluorescing compound DCF and horseradish peroxidase. H2O2 generated by the system is assessed by measuring the specific fluorescence profile at the excitation and emission wavelengths of 485 and 530 nm respectively, in the presence of increasing concentrations of test compound. Test compounds are ranked according to their capacity to inhibit H2O2 generated by the system where lower values reflect greater ability to inhibit H2O2 production.

[4] = test system: Fe-DA; experiment: H2O2 assay, Fe-DA (% cf. Fe 0.4 μM/DA 50 μM); assay type: biochemical
Protocol: as §1

[5] = Mouse Plasma Conc.; assay type: in vivo; conditions: given as 'Up to'
[6] = test system: M17 human neuroblastoma cells; experiment: Metal Uptake Assay (metal transport); assay type: cell-based; conditions: 10 μM Cu + 10 μM compound, 5 hours
Protocol: Assay 3. Metal Uptake Assay
M17 human neuroblastoma cells are plated out on 6 well plates and left overnight. Enough cells are added to give approximately 70% confluent the following day of the experiment. Test compounds are added to media and mixed with equi-molar amounts of CuCl2 solution. A=10 μM Cu+10 μM MPAC; B=10 μM Cu+10 μM MPAC.
Cells are incubated in 1 ml of media/MPAC/Cu mix for 5 hours at 37° C. At the end of the incubation the media is removed with a vacuum aspirator and 1 ml of PBS added to dislodge the cells. Cells are then put into Eppendorf tubes and pelleted. The PBS is removed and the remaining cell pellets are frozen at −20 C.
The cell pellets are prepared as follows:
Received cell pellets of similar levels in 1.5 ml microfuge tubes. Added 50 μl of concentrated Nitric Acid (Aristar, BDH) to each cell pellet and allowed them to digest over night. Heated the samples for 20 min at 90° C. to complete the digestion. The volume of each sample was reduced to ˜45 ul after digestion. Added 1 ml of the 1% Nitric Acid diluent to each sample. (referred to as the “preparation solution” samples).
Measurements were made using a Varian UltraMass ICPMS instrument under operating conditions suitable for routine multi-element analysis.
The instrument was calibrated using Blank, 10, 50 and 100 ppb of a certified multi-element ICPMS standard solution (ICP-MS—CAI2-1, Accustandard) for Fe, Cu and Zn in 1% nitric acid. Used an certified internal standard solution containing 100 ppb Yttrium (Y 89) as an internal control (ICP-MS—IS-MIX1-1, Accustandard).

[7] = test system: M17; experiment: Cytotox (% viable), cells marked M17; assay type: cell-based, human; conditions: repeat values given

Structure (SMILES)	Behaviour Pole Test, % (SSV = 0%) [1] [%]	Behaviour Pole Test, value ± SD [1]	SN cell counts % of SSV [1] [%]	SN cell counts (cells +/− SD) [1]	Cytotox (% viable at 1 uM) [2]	Cytotox (% viable at 10 uM) [2]	pIC50 [3]	Fe-DA % cf. Fe 0.4 μM/DA 50 μM [4] [%]	Mouse Plasma Conc. [5] [ng/mL]	Metal transport [6]	Cytotox (% viable at 1 uM) [7]	Cytotox (% viable at 10 uM) [7]	Fe-DA % cf. Fe/DA ([4]; 2 μM Fe) [%]
CCCn1c(CNC)nc2c(O)c(Cl)cc(Cl)c2c1=O [Compound F4095, 5,7-Dichloro-8-hydroxy-2-((methylamino)methyl)-3-propylquinazolin-4(3H)-one]	24.25	(2.21 ± 0.89)	12.15	(2436.00 ± 603.06) cells	–	–	–	–	–	–	–	–	–
CCn1c(CN2CCCCC2)nc2c(O)c(Cl)cc(Cl)c2c1=O [Compound F4483]	–	–	–	–	93.4% and 105.5%	99.7% and 72.3%	6.48	62	≤ 1585.2	Metal transport 22%	–	–	–
CC(C)Cn1c(CN(C)C)nc2c(O)c(Cl)cc(Cl)c2c1=O.Cl [Compound F4271, 5,7-Dichloro-2-((dimethylamino)methyl)-8-hydroxy-3-isobutylquinazolin-4(3H)-one]	–	–	–	–	–	–	6.77	57	–	Metal transport 27.8%	104.4% and 102.3%	61.5% and 52.5%	–
CCN(CC)Cc1nc2c(O)c(Cl)cc(Cl)c2c(=O)n1C [Compound F4473]	–	–	–	–	97.0% and 99.0%	91.6% and 106.1%	6.22	62	≤ 1356.2	Metal transport 9%	–	–	–
CCN(CC)Cc1nc2c(O)c(Cl)cc(Cl)c2c(=O)n1CC [Compound F4386]	–	–	–	–	–	–	6.48	77	≤ 3294.1	Metal transport 13%	101.8% and 99.8% and 101.4% and 107.9%	105.2% and 91.9% and 111.7% and 106.8%	–
O=c1c2c(Cl)cc(Cl)c(O)c2nc(CN2CCCCC2)n1CC1CC1 [Compound F4391]	9.96	(2.63 ± 1.10)	25.18	(2719.11 ± 255.12) cells	–	–	6.23	–	≤ 17255.9	Metal transport 34%	87.4% and 95.9% and 96.0%	57.5% and 70.5% and 66.5%	97
CCN1CCN(Cc2nc3c(O)c(Cl)cc(Cl)c3c(=O)n2CC2CC2)CC1 [Compound F4383]	–	–	–	–	–	–	5.82	81	–	Metal transport 8%	118.5% and 102.3%	103.4% and 92.7%	–
O=c1c2c(Cl)cc(Cl)c(O)c2nc(CN2CCOCC2)n1CC1CC1 [Compound F4384]	–	–	–	–	–	–	–	–	–	Metal transport 17%	116.3% and 106.4%	86.5% and 73.0%	–
CCCN(CCC)Cc1nc2c(O)c(Cl)cc(Cl)c2c(=O)n1C [Compound F4551]	–	–	–	–	89.7% and 96.9%	50.7% and 62.5%	6.35	56	–	Metal transport 30%	–	–	–
CCCNCc1nc2c(O)c(Cl)cc(Cl)c2c(=O)n1CCC [Compound F4542]	–	–	–	–	105.8% and 102.9% and 94.3%	–	6.44	47	–	Metal transport 30%	–	–	–
CN(Cc1ccc(F)cc1)Cc1nc2c(O)c(Cl)cc(Cl)c2c(=O)n1CC1CC1 [Compound F4480]	–	–	–	–	91.6% and 106.7%	30.3% and 33.3%	6.33	46	–	Metal transport 138%	–	–	–

— patent publication US9145375B2, “Quinazolinone compounds” (PRANA BIOTECHNOLOGY LIMITED, priority 2008, dated 2015)
